Experimental data from patent US11993640B2, “Treating inflammatory lung disease” (United States Government as represented by the Department …, priority 2019, dated 2024).
Non-standard residues stand in square brackets, D forms with d. Residues, ends and D or L forms follow the SMILES beside them. *: point of attachment. Phe(F5) = N[C@@H](Cc1c(F)c(F)c(F)c(F)c1F)C(=O)O; hArg = N=C(N)NCCCC[C@H](N)C(=O)O; 12Ado = NCCCCCCCCCCCC(=O)O; Nle = CCCC[C@H](N)C(=O)O; Orn = NCCC[C@H](N)C(=O)O; Abu = CC[C@H](N)C(=O)O; PhAc = O=C(Cc1ccccc1)*

Legend:
OVCAR-3 cells = assay: In vitro cell viability, ovarian cancer OVCAR-3; type: cell-based, human; conditions: * at concentration of 2 μM for 72 h; Table 3B
Procedure: The inhibitory effects of the various synthesized GHRH antagonists were tested in cell proliferation assays in various human cancer cell lines including stomach cancer (KATOIII, N87), colon cancer (HT-29), urothelial cancer (J82, RT4), pancreatic cancer (PANC-1, CFPAC-1), prostatic cancer (PC3), breast cancer (MX-1, HCC1806), ovarian cancer (SK-OV-3, OVCAR-3) and lung cancer (HCC827, H460).
Cell culture. Human cancer cell lines including pancreatic (PANC-1 and CFPAC-1), lung (HCC827 and H460), stomach (NCI-N87 and KATOIII), urothelial (J82, RT4), prostatic (PC3), breast (MX-1 and HCC 1806), colorectal (HT-29), and ovarian (SK-OV-3 and OVCAR-3) were obtained from the American Type Culture Collection (ATCC) and cultured at 37° C. in a humidified 95% air/5% CO2 atmosphere in the medium recommended by ATCC.
In vitro cell viability. Cell viability was analyzed as follows: cancer cells including pancreatic (PANC-1 and CFPAC-1), lung (HCC827 and H460), stomach (NCI-N87 and KATOIII), urothelial (J82, RT4), prostatic (PC3) and breast (MX-1 and HCC 1806), colorectal (HT-29) and ovarian (SK-OV-3 and OVCAR-3) were grown on 96 well plates to ˜60% confluence, the cells were starved for 24 h in culture medium containing 0.5% FBS. […] Cell viability was measured using CellTiter 96 aqueous one solution kit (Promega). […]

[1] = tested on: C57Bl/6J mice treated with bleomycin; assay: Bleomycin lung injury model, lung hydroxyproline assay; type: in vivo, mouse
Procedure: Experimental animals. 8-week old C57Bl/6J male mice (The Jackson Laboratory, Bar Harbor, ME) were used in these experiments. Mice weighed about 26 grams at the start. Mice were randomly allocated to the experimental groups and housed in identical filter top cages in a ventilated rack. Mice were exposed to a 12-hour light/dark cycle and had free access to standard laboratory chow and water.
Bleomycin and GHRH-R antagonist treatment. Mice were treated with 0.8 units of bleomycin (Bleomycin for Injection USP, Hospira, Lake Forest, IL) intraperitoneally (IP) on days 1, 3, 7, 10, 14 and 21 (Collins S, Chan-Li Y, Oh M, Vigeland C, Limjunyawong N, Mitzner W, Powell J D, Horton M R (2016). JCI Insight 1(4):1-13). Mice (randomly assigned) were simultaneously treated subcutaneously (sc) with MIA-602 (5 μg/day) or its vehicle (100 μL/day). MIA-602 was dissolved in DMSO (ACS grade; Sigma-Aldrich) and diluted 1:500 in normal saline for daily sc injection on days 0-21.
Tissue preparations. Mice were killed by CO2 inhalation before any treatment, or on days 14 or 28 for micro-CT scans of lungs and harvesting of lung tissue (Vande Velde G, Poelmans J, De Langhe E, Hillen A, Vanoirbeek J, Himmelreich U, Lories R (2016). Dis Model Mech 9:91). […]
Hydroxyproline assay. […] Hydroxyproline was measured colorimetrically (560 nm) after hydrolysis using an assay kit (MAK008, Sigma-Aldrich, St. Louis, MO). […]

## CCCC[C@H](NC(=O)[C@@H](NC(=O)[C@H](CC(=O)O)NC(=O)[C@H](CCC(N)=O)NC(=O)[C@H](CC(C)C)NC(=O)[C@H](CC(C)C)NC(=O)[C@H](CCCN)NC(=O)[C@H](Cc1c[nH]cn1)NC(=O)[C@H](C)NC(=O)[C@H](CO)NC(=O)[C@H](CC(C)C)NC(=O)[C@H](CCC(N)=O)NC(=O)[C@H](CC)NC(=O)[C@H](CC(C)C)NC(=O)[C@@H](NC(=O)[C@H](CCCN)NC(=O)[C@H](Cc1c[nH]cn1)NC(=O)[C@H](Cc1ccc(OC)cc1)NC(=O)[C@H](CCCCNC(=N)N)NC(=O)[C@H](C)NC(=O)[C@@H](NC(=O)[C@H](Cc1c(F)c(F)c(F)c(F)c1F)NC(=O)[C@@H](NC(=O)[C@H](C)NC(=O)[C@H](CC(=O)O)NC(=O)[C@@H](CCCNC(=N)N)NC(=O)[C@H](Cc1ccc(O)cc1)NC(=O)CCCCCCCCCCCNC(=O)Cc1ccccc1)[C@@H](C)CC)[C@@H](C)O)C(C)C)[C@@H](C)CC)C(=O)N[C@H](CCCNC(=N)N)C(=O)N[C@@H](CCCCNC(=N)N)C(N)=O [MIA-602, PhAC-Ada, Tyr D-Arg, Asp, Ala, Ile, 5FPhe, Thr, Ala, Har, Tyr(Me), His, Orn, Val, Leu, Abu, Gin, Leu, Ser, Ala, His, Orn, Leu, Leu, Gin, Asp, Ile, Nle, D-Arg, Har NH2, reference compound] ({PhAc-12Ado}-Y[dR]DAI[Phe(F5)]TA[hArg]Y(Me)H[Orn]VL[Abu]QLSAH[Orn]LLQDI[Nle][dR][hArg]-NH2)
OVCAR-3 cells
  In vitro relative inhibitory potency in comparison to MIA-602, OVCAR-3: 1
[1]; day 14, MIA-602 5 μg/day sc, bleomycin IP
  Lung hydroxyproline (HP) content: did not increase significantly
[1]; day 28, MIA-602 5 μg/day sc days 1-21, bleomycin IP, compared to naive
  Lung hydroxyproline (HP) content: No significant increase in HP content
